Experimental data published in patent US10208027B2, “Processes for preparing ATR inhibitors” (Vertex Pharmaceuticals Incorporated, priority 2011, dated 2019).

Experiments:
[1] = tested on: HCT116 colorectal cancer cells; test: Cisplatin sensitization assay, 96 h cell viability (MTS); format: cell-based; conditions: concentration of compound required to reduce the IC50 of Cisplatin alone by at least 3-fold; HCT116, 96 h MTS
Method: Compounds can be screened for their ability to sensitize HCT116 colorectal cancer cells to Cisplatin using a 96 h cell viability (MTS) assay. […] Compounds and Cisplatin are then both added simultaneously to the cell media in 2-fold serial dilutions from a top final concentration of 10 μM as a full matrix of concentrations in a final cell volume of 200 μl, and the cells are then incubated at 37° C. in 5% CO2. After 96 h, 40 μl of MTS reagent (Promega G358a) is added to each well and the cells are incubated for 1 h at 37° C. in 5% CO2.

[2] = tested on: HCT116 colorectal cancer cells; test: Single agent HCT116 activity, 96 h cell viability (MTS) assay; format: cell-based; conditions: Homo sapiens, HCT-116, 96 h MTS viability, read-out: Single agent HT116 IC50
Method: Compounds can be screened for single agent activity against HCT116 colorectal cancer cells using a 96 h cell viability (MTS) assay. HCT116 are plated at 470 cells per well in 96-well polystyrene plates (Costar 3596) in 150 μl of McCoy's 5A media (Sigma M8403) supplemented with 10% foetal bovine serum (JRH Biosciences 12003), Penicillin/Streptomycin solution diluted 1:100 (Sigma P7539), and 2 mM L-glumtamine (Sigma G7513), and allowed to adhere overnight at 37° C. in 5% CO2. Compounds are then added to the cell media in 2-fold serial dilutions from a top final concentration of 10 μM as a full matrix of concentrations in a final cell volume of 200 μl, and the cells are then incubated at 37° C. in 5% CO2. After 96 h, 40 μl of MTS reagent (Promega G358a) is added to each well and the cells are incubated for 1 h at 37° C. in 5% CO2. Finally, absorbance is measured at 490 nm using a SpectraMax Plus 384 reader (Molecular Devices) and IC50 values can be calculated.

full-length ATR = full-length ATR (Homo sapiens (Human), UniProt Q13535); test: ATR inhibition assay (radioactive-phosphate incorporation); format: biochemical
Sequence of full-length ATR (Q13535 whole entry): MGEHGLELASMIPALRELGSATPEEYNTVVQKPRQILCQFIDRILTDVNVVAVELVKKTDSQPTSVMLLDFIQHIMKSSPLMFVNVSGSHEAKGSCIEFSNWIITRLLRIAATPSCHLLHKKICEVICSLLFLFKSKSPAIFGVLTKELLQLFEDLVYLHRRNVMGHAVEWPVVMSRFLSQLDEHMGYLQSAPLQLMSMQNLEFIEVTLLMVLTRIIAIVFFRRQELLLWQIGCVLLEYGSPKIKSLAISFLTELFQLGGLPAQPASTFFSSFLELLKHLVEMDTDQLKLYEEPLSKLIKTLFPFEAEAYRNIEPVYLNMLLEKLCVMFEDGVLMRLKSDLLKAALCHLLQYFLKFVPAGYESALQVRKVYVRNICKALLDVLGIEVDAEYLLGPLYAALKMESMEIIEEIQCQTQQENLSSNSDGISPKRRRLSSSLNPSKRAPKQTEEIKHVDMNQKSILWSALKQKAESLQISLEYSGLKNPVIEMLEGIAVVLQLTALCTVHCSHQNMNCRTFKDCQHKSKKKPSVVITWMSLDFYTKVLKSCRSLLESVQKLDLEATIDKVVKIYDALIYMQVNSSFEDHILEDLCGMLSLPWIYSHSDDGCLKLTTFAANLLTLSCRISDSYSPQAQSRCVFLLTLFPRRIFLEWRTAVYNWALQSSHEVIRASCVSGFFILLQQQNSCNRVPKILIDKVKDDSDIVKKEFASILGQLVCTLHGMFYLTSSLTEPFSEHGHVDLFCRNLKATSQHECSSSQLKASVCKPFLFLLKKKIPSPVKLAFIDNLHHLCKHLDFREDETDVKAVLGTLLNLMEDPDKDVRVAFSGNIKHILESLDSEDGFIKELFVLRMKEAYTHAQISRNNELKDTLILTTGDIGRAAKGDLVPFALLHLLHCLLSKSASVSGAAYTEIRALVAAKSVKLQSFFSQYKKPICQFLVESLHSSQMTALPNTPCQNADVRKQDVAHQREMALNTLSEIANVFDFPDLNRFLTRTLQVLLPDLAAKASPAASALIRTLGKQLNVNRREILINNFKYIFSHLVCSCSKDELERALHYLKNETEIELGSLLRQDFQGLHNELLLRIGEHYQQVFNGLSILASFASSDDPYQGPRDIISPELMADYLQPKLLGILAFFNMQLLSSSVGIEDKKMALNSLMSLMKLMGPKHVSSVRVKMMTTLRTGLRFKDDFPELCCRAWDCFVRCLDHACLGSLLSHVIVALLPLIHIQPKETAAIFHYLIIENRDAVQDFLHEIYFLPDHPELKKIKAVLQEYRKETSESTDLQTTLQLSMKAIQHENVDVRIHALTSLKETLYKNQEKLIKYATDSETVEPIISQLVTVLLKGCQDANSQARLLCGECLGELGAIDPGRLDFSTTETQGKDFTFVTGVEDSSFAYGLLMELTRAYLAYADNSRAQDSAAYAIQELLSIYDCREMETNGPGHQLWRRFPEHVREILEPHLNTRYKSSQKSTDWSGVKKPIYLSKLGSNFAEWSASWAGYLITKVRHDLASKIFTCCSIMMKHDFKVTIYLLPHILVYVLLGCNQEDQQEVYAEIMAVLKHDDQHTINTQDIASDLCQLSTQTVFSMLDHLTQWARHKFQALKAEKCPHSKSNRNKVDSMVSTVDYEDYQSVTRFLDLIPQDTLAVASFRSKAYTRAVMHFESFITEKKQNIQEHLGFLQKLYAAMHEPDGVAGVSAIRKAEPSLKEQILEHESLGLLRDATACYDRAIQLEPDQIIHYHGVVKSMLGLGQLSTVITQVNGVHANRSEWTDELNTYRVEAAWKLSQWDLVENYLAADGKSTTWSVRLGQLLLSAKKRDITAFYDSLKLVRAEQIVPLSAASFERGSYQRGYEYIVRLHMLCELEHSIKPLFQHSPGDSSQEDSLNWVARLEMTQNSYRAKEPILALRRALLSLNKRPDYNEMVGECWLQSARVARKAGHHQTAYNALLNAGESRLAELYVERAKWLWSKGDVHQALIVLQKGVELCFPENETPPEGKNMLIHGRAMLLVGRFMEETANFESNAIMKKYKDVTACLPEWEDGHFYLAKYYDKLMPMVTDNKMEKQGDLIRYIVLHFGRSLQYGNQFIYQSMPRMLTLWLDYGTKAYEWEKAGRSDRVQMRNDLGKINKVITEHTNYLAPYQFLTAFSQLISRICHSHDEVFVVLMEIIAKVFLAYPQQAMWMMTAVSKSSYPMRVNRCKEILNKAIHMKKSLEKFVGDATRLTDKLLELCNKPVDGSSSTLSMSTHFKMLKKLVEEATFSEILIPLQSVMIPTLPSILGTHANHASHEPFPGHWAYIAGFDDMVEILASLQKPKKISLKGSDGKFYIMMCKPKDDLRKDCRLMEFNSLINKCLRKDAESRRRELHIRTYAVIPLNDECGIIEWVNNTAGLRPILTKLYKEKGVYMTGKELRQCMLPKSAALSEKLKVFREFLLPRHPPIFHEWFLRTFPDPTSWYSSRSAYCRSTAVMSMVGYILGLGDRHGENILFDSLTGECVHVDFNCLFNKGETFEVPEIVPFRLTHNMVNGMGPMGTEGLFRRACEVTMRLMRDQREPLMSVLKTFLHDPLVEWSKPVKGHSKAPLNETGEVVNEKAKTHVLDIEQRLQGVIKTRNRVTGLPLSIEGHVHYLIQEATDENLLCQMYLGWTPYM
Method: Compounds can be screened for their ability to inhibit ATR kinase using a radioactive-phosphate incorporation assay. Assays are carried out in a mixture of 50 mM Tris/HCl (pH 7.5), 10 mM MgCl2 and 1 mM DTT. Final substrate concentrations are 10 μM [γ-33P]ATP (3 mCi 33P ATP/mmol ATP, Perkin Elmer) and 800 μM target peptide ([sequence]).
Assays are carried out at 25° C. in the presence of 5 nM full-length ATR. An assay stock buffer solution is prepared containing all of the reagents listed above, with the exception of ATP and the test compound of interest. […] The plate is pre-incubated for 10 minutes at 25° C. and the reaction initiated by addition of 15 μL [γ-33P]ATP (final concentration 10 μM).
The reaction is stopped after 24 hours by the addition of 30 μL 0.1M phosphoric acid containing 2 mM ATP. A multiscreen phosphocellulose filter 96-well plate (Millipore, Cat no. MAPHNOB50) is pretreated with 100 μL 0.2M phosphoric acid prior to the addition of 45 μL of the stopped assay mixture. […]
After removing mean background values for all of the data points, Ki(app) data are calculated from non-linear regression analysis of the initial rate data using the Prism software package (GraphPad Prism version 3.0cx for Macintosh, GraphPad Software, San Diego Calif., USA).

IC50 [2] [nM] | Compound | Cisplatin sensitization [1] [nM] | Ki (full-length ATR) [nM]
46 | [2H]C([2H])([2H])NC([2H])([2H])c1ccc(-c2cc(-c3nc(-c4ccc(S(=O)(=O)C(C)C)cc4)cnc3N)on2)cc1 [II-2, 3-[3-[4-[dideuterio-(trideuteriomethylamino)methyl]phenyl]isoxazol-5-yl]-5-(4-isopropylsulfonylphenyl)pyrazin-2-amine] | 29 | –
66 | [2H]C([2H])([2H])NCc1ccc(-c2cc(-c3nc(-c4ccc(S(=O)(=O)C(C)C)cc4)cnc3N)on2)cc1 [II-3, 5-(4-isopropylsulfonylphenyl)-3-[3-[4-[(trideuteriomethylamino)methyl]phenyl]isoxazol-5-yl]pyrazin-2-amine] | 39 | –
62 | [2H]C([2H])(NC)c1ccc(-c2cc(-c3nc(-c4ccc(S(=O)(=O)C(C)C)cc4)cnc3N)on2)cc1 [II-1, 3-[3-[4-[dideuterio(methylamino)methyl]phenyl]isoxazol-5-yl]-5-(4-isopropylsulfonylphenyl)pyrazin-2-amine] | 39 | –
– | CC(C)(C#N)c1cc(-c2cnc(N)c(-c3cc(-c4ccc(CNC5CCOCC5)cc4)no3)n2)ccn1 [Compound I-1, 2-(4-(5-amino-6-(3-(4-((tetrahydro-2H-pyran-4-ylamino)methyl)phenyl)isoxazol-5-yl)pyrazin-2-yl)pyridin-2-yl)-2-methylpropanenitrile] | – | < 1
– | 5-(4-(tert-butylsulfonyl)phenyl)-3-(3-(4-((methylamino)methyl)phenyl)isoxazol-5-yl)pyrazin-2-amine [Compound I-2] | – | < 1
